Laboratory results as given in US12486304B2, “Peptide ligand targeting carbonic anhydrase IX, peptide construct comprising same, and uses thereof” (priority 2022, dated 2025).
*1 amine or outer side, *2 acyl side, *3 side chain or, on linkers, in order; H or OH if unused. Where a SMILES comes first, the peptide text is derived from it. [ ]: non-standard residue; d: D form. X1 = NS(=O)(=O)c1ccc(-c2cn(CCCC[C@H](N[*:1])C(=O)[*:2])nn2)cc1

Conditions: human, 168 h
Protocol: A solution of the peptide structure diluted to a final concentration of 50 μm in 1 mL of 100% pure human serum (Cat #S1, Merk) or plasma (Cat #70039.1, [sequence] Technologies) [or 100% pure mouse serum (Sigma, Cat #S7273) or plasma (Rockland, Cat #D508-06-0050)] was divided into 100 μL. Then, while stored at 37° C., analysis was performed once a day for 7 days using the LC-MS (1260 Infinity II, Infinity Lab LC/MSD, Aglient) equipped with the Agilent Poroshell 120 EC-C18 column (4.6×50 mm, 2.7 μm). Before injecting the sample into the LC, 100 μL of ACN was added to the serum or plasma solution containing the peptides, then put into the centrifuge and spun to settle the precipitate, and only 10 μL of the supernatant was used for analysis.

In the case of C[C@H](O)[C@H]1NC(=O)[C@@H](Cc2ccccc2)NC(=O)[C@@H](Cc2c[nH]cn2)NC(=O)[C@@H](Cc2ccccc2)NC(=O)[C@@H](CCCNC(=N)N)NC(=O)[C@@H](CCCNC(=N)N)NC(=O)[C@H](CCCCn2cc(-c3ccc(S(N)(=O)=O)cc3)nn2)NC(=O)[C@H](CCC(N)=O)NC(=O)CNC(=O)[C@@H](Cc2c[nH]cn2)NC1=O [No. 35] (cyclo(Q[X1][dR][dR][dF][dH][dF][dT][dH]G)), the Stability in plasma is reported as “not degraded at all and was completely maintained even after 6 days”.
